From patent US9458463B2, “Method for treatment of diabetes by a small molecule inhibitor for GRK5” (MAX-PLANCK-GESELLSCHAFT ZUR FÖRDERUNG DER WISSENSCHAFTEN …, priority 2010, dated 2016)

Experiments:
[1] = molecular target: T1, full length GRK5 (Homo sapiens, UniProt P34947); experiment: GRK5 kinase activity assay, ADP Glo Kinase Assay technology (Promega); assay type: biochemical; conditions: group II; ADP Glo Kinase Assay (Table 9-B)
T1 construct: 6/2 fold concentrated full length GRK5 (Millipore, #14-714) in reaction buffer; purchased Millipore 14-714
T1 sequence (P34947 whole entry): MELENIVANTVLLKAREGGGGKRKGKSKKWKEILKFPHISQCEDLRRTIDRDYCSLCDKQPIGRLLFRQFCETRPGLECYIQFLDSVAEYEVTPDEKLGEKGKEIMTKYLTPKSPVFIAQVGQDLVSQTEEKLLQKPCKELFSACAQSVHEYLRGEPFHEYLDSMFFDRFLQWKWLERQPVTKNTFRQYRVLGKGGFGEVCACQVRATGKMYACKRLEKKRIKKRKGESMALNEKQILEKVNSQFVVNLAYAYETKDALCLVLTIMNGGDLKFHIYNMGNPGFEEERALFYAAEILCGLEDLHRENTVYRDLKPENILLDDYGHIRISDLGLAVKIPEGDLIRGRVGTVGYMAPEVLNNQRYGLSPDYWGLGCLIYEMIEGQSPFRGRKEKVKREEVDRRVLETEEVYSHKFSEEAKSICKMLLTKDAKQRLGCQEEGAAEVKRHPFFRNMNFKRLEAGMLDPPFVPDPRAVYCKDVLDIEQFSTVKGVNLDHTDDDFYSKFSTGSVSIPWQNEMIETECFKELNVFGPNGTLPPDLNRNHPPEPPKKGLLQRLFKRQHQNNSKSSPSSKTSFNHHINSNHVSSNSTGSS
Description: The maximal compound assay concentration was set to 100 μM, representing the compound assay concentration used in the primary screen.
Increasing concentrations of GRK5 are incubated together with 100 μM ATP in the absence and presence of 10 μM casein in a reaction buffer. Within this incubation non-phosphorylated casein is converted into phosphorylated casein and ATP is converted into ADP. Thereafter nonconverted ATP is digested into AMP by addition of the ADP-Glo™ Reagent. Subsequently the ADP that is produced by GRK5 activity is phosphorylated back to ATP by addition of Promega Kinase Detection Reagent. These ATP levels serve as measure for the GRK5 activity and are quantified by a luciferase/luciferin reaction.
For GRK5 kinase activity assay, the following protocol was used:
The reaction buffer used was composed of: 20 mM MES pH 6.0, 1 mM DTT, 10 mM MgCl2, 0.01% Tween20 and the reaction volume was 6 μL.
Firstly 4 μL 6/4 fold concentrated substrate and 6/4 fold concentrated ATP in 1 fold concentrated reaction buffer are added to each well of the assay plate. Subsequently 67 nL […] concentrated test compound in 100% DMSO are added to each well except to C− and C+ wells using pin tool. Then 67 nL 100% DMSO are pipetted to C− (no kinase, no compound) and C+ (no compound) wells using pin-tool and 2 μL reaction buffer are added to C− wells. […] After incubation for 120 min. at room temperature 6 μL ADP-Glo™ Reagent (ADP Glo™ Kinase Assay Kit: Promega, V9101) are added to each well to stop the kinase reaction and deplete the unconsumed ATP. After a second incubation for 40 min. at room temperature 12 μL of Kinase Detection Reagent are added to convert ADP to ATP and start luciferase/luciferin reaction for detection of ATP. […] Finally, after incubation for 40 min at room temperature the luminescence intensity was measured.
The activity of the compounds was classified according to IC50 for binding sites of Grk5 into the following ranges:
8800 Customer compounds were screened for their ability to inhibit the enzymatic activity of GRK5. Screening was performed using the ADP Glo™ Kinase Assay technology (Promega). The small molecular weight compounds were delivered at 10 mM stock concentration and were tested at a final assay concentration of 100 μM.
IC50 values were determined in triplicates at 12 concentrations with a dilution factor of three. Triplicates were measured on three different assay plates. The maximal compound assay concentration was set to 100 μM representing the compound assay concentration used in the primary screen. A larger maximal compound assay concentration could not be achieved since the maximal compound concentration on the compound plates was 10 mM (>1% DMSO concentration in the assay).

[2] = tested on: 3T3-L1 cells; experiment: Cell viability assay (CellTiter-Glo / automated cell number) in 3T3-L1; assay type: cell-based; conditions: Mus musculus, read-out: Inhibition of cell viability IC50
Source text: (§1) Luminescent cell viability assay. For the detection of cell viability, the CellTiter-Glo® Luminescent Cell Viability Assay was used. This test is based on a luciferase reaction to measure the amount of ATP in cells. This correlates directly with the number of cells and their viability because cells lose the ability to synthesize ATP directly after e.g. loss of membrane integrity or a cytotoxic event. The protocol was adapted to 24 well plates and to the different culture conditions resulting in a standardized protocol which is described below. Cell lysis, inhibition of endogenous ATPases and detection of ATP was performed by adding the CellTiter-Glo® Reagent to the culture wells. Per well, 100 μl reagent were mixed with the same volume of proper Medium. Lysing of the cells took place by 10 min incubation at RT and moderate shaking. Three times 50 μl cell lysate was transferred into a white 96 well plate to eliminate stray light, and the bioluminescence was measured.
(§2) In a 96 well dish 10000 cells per well (100 μl) were seed and treated for 72 h. At the end of the treatment, cells were fixed with 4% paraformaldehyde in PBS for 15 minutes, permeabilized with 0.1% triton-X 100 in PBS for 15 minutes and stained with Hoechst 33342 (20 μg/ml in PBS; dilute from 20 mg/ml stock) directly to cells in 100 μl medium in PBS for 30 minutes at 37° C. Stained cells were imaged with a Cellomics ArrayScan VT I automated microscope. Images were analyzed with vHCS Scan Target Activation software v5.1.2 to identify apoptotic cells. Six fields per well of a 96 well plate we re-imaged at 10× magnification. First, cells were identified by their nuclei staining in channel 1 of Cellomics and their amount. Staining intensity was plotted and compared between NT controls and compound treated cells. Finally, data was obtained using vHCS View software v 5.1.2 and the numbers of cells present in the 96 well were identified as “Valid Object Count” whereas the percentage of infection was determined as “% selected”. IC50 values have been calculated accordingly.

[3] = tested on: beta TC6 cells; experiment: Cell viability assay (CellTiter-Glo / automated cell number) in beta TC6; assay type: cell-based; conditions: Mus musculus, read-out: Inhibition of cell viability IC50
Source text: as §1, §2

[4] = tested on: C2C12 cells; experiment: Cell viability assay (CellTiter-Glo / automated cell number) in C2C12; assay type: cell-based; conditions: Mus musculus, read-out: Inhibition of cell viability IC50
Source text: as §1, §2

[5] = tested on: HepG2 cells; experiment: Cell viability assay (CellTiter-Glo / automated cell number) in HepG2; assay type: cell-based; conditions: Homo sapiens, read-out: Inhibition of cell viability IC50
Source text: as §1, §2

IC50 [1] | IC50 [5] | Compound | IC50 [2] | IC50 [3] | IC50 [4]
< 0.1 µM | 5.73 µM | C[C@@H](NC(=O)c1ccc2c(c1)/C(=C/Nc1ccc(CN3CCCCC3)cc1)C(=O)N2)c1ccccc1 [II.78, (3Z)-2-oxo-N-[(1R)-1-phenylethyl]-3-({[4-(piperidin-1-ylmethyl)phenyl]amino}methylene)indoline-5-carboxamide] | > 10 µM | > 10 µM | > 10 µM
1 to 2 µM | > 10 µM | COC(=O)[C@@H](Cc1ccccc1)NC(=O)c1c(C)[nH]c(/C=C2\C(=O)Nc3ccc(C(=O)O)cc32)c1C [II.140, (3Z)-3-[4-((1R)-1-methoxycarbonyl-2-phenyl-ethylcarbamoyl)-3,5-dimethyl-1H-pyrrol-2-ylmethylene]-2-oxo-2,3-dihydro-1H-indole-5-carboxylic acid] | 4 µM | > 10 µM | > 10 µM
< 0.1 µM | 2.08 µM | COc1cccc([C@@H](C)NC(=O)c2ccc3c(c2)/C(=C/Nc2ccc(CN4CCCCC4)cc2)C(=O)N3)c1 [II.79, (3Z)-N-[(1R)-1-(3-methoxyphenyl)ethyl]-2-oxo-3-({[4-(piperidin-1-ylmethyl)phenyl]amino}methylene)indoline-5-carboxamide] | > 10 µM | 2.05 µM | > 10 µM
0.1 to 1 µM | > 10 µM | CCOC(=O)[C@H](C)NC(=O)c1c(C)[nH]c(/C=C2\C(=O)Nc3ccc(C(=O)O)cc32)c1C [II.136] | 2.69 µM | > 10 µM | > 10 µM
< 0.1 µM | 3.9 µM | C[C@@H](NC(=O)c1ccc2c(c1)/C(=C/Nc1ccc(CN3CCCCC3)cc1)C(=O)N2)c1cccc(Cl)c1 [II.80, (3Z)-N-[(1R)-1-(3-chlorophenyl)ethyl]-2-oxo-3-({[4-(piperidin-1-ylmethyl)phenyl]amino}methylene)indoline-5-carboxamide] | > 10 µM | 0.47 µM | > 10 µM
1 to 2 µM | > 10 µM | Cc1[nH]c(/C=C2\C(=O)Nc3ccc(C(=O)O)cc32)c(C)c1C(=O)O [II.139, (3Z)-3-(4-carboxy-3,5-dimethyl-1H-pyrrol-2-ylmethylene)-2-oxo-2,3-dihydro-1H-indole-5-carboxylic acid] | 1.34 µM | > 10 µM | > 10 µM

The remaining lines, values behind:

Compound | IC50 [1] | IC50 [5] | IC50 [2] | IC50 [3] | IC50 [4]
CCC(NC(=O)c1ccc2c(c1)/C(=C/c1[nH]c(C)c(C(=O)NCCN3CCCC3)c1C)C(=O)N2)c1ccc(Cl)cc1 (stereo not drawn) [II.13, (3Z)-N-[1-(4-chlorophenyl)propyl]-3-({3,5-dimethyl-4-[(2-pyrrolidin-1-ylethyl)carbamoyl]-1H-pyrrol-2-yl}methylene)-2-oxoindoline-5-carboxamide] | 0.1 to 1 µM | 1.59 µM | > 10 µM | 1.63 µM | 4.61 µM
CC[C@@H](NC(=O)c1ccc2c(c1)/C(=C/c1[nH]c(C)c(C(=O)NCCN(CC)CC)c1C)C(=O)N2)c1ccccc1 [II.61, (3Z)-3-[(4-{[2-(diethylamino)ethyl]carbamoyl}-3,5-dimethyl-1H-pyrrol-2-yl)methylene]-2-oxo-N-[(1R)-1-phenylpropyl]indoline-5-carboxamide] | < 0.1 µM | 0.33 µM | 0.6 µM | 0.44 µM | 1.49 µM
Cc1[nH]c(/C=C2\C(=O)Nc3ccc(C(=O)N[C@H](C)c4ccccc4)cc32)c(C)c1C(=O)N1CCCCC1 [II.14, (3Z)-3-{[3,5-dimethyl-4-(piperidin-1-ylcarbonyl)-1H-pyrrol-2-yl]methylene}-2-oxo-N-[(1R)-1-phenylethyl]indoline-5-carboxamide] | 0.1 to 1 µM | 0.72 µM | 0.75 µM | 1.19 µM | 1.42 µM
CCN(CC)CCNC(=O)c1c(C)[nH]c(/C=C2\C(=O)Nc3ccc(C(=O)N[C@H](C)c4ccccc4)cc32)c1C [II.59, (3Z)-3-[(4-{[2-(diethylamino)ethyl]carbamoyl}-3,5-dimethyl-1H-pyrrol-2-yl)methylene]-2-oxo-N-[(1R)-1-phenylethyl]indoline-5-carboxamide] | – | 0.37 µM | 0.63 µM | 0.71 µM | 1.11 µM
CC[C@@H](NC(=O)c1ccc2c(c1)/C(=C/c1[nH]c(C)c(C(=O)N3CCN(C)CC3)c1C)C(=O)N2)c1ccccc1 [II.7, (3Z)-3-({3,5-dimethyl-4-[(4-methylpiperazin-1-yl)carbonyl]-1H-pyrrol-2-yl}methylene)-2-oxo-N-[(1R)-1-phenylpropyl]indoline-5-carboxamide] | 2 to 10 µM | 0.69 µM | 1.07 µM | 1.19 µM | 1.31 µM
CC[C@@H](NC(=O)c1ccc2c(c1)/C(=C/c1[nH]c(C)c(C(=O)NCCN3CCCC3)c1C)C(=O)N2)c1ccccc1 [II.6, (3Z)-3-({3,5-dimethyl-4-[(2-pyrrolidin-1-ylethyl)carbamoyl]-1H-pyrrol-2-yl}methylene)-2-oxo-N-[(1R)-1-phenylpropyl]indoline-5-carboxamide] | 0.1 to 1 µM | 0.27 µM | 1.7 µM | 0.42 µM | 1.49 µM
COC(=O)[C@H](COC(C)(C)C)NC(=O)c1c(C)[nH]c(/C=C2\C(=O)Nc3ccc(C(=O)O)cc32)c1C [II.141, (3Z)-3-[4-(2-tert-butoxy-(1S)-1-methoxycarbonyl-ethylcarbamoyl)-3,5-dimethyl-1H-pyrrol-2-ylmethylene]-2-oxo-2,3-dihydro-1H-indole-5-carboxylic acid] | 2 to 10 µM | > 10 µM | 3.41 µM | > 10 µM | > 10 µM
CC[C@@H](NC(=O)c1ccc2c(c1)/C(=C/Nc1ccc(CN3CCCCC3)cc1)C(=O)N2)c1ccccc1 [II.69, (3Z)-2-oxo-N-[(1R)-1-phenylpropyl]-3-({[4-(piperidin-1-ylmethyl)phenyl]amino}methylene)-indoline-5-carboxamide] | < 0.1 µM | 4.51 µM | > 10 µM | > 10 µM | 5.63 µM
COc1ccc([C@@H](C)NC(=O)c2ccc3c(c2)/C(=C/c2[nH]c(C)c(C(=O)N4CCN(C)CC4)c2C)C(=O)N3)cc1 [II.21, (3Z)-3-({3,5-dimethyl-4-[(4-methylpiperazin-1-yl)carbonyl]-1H-pyrrol-2-yl}methylene)-N-[(1R)-1-(4-methoxyphenyl)ethyl]-2-oxoindoline-5-carboxamide] | 2 to 10 µM | 1.61 µM | 1.31 µM | 4.07 µM | 9.83 µM
CCN(CC)CCNC(=O)c1c(C)[nH]c(/C=C2\C(=O)Nc3ccc(C(=O)N[C@@H](C)c4ccccc4)cc32)c1C [II.60, (3Z)-3-[(4-{[2-(diethylamino)ethyl]carbamoyl}-3,5-dimethyl-1H-pyrrol-2-yl)methylene]-2-oxo-N-[(1S)-1-phenylethyl]indoline-5-carboxamide] | – | 2.29 µM | 2 µM | 2.21 µM | 4.06 µM
